Assays:
[1] = test system: M2 macrophages from primary CD14+human monocytes; assay: Macrophage gene expression via RT-qPCR; assay type: cell-based; conditions: 1 μM TS free or in nanotubes, or empty nanotubes; compared to untreated M2-macrophages
Method: Freshly isolated primary CD14+human monocytes were plated at a density of 500,000 cells/well in the presence of 50 ng/mL of M-CSF (macrophage colony stimulating factor) to differentiate them to MO-macrophages. The media were renewed with the same composition (DMEM+10% FBS+1% Penicillin-Streptomycin+50 ng/mL M-CSF) every 2-3 days until complete differentiation. The macrophages were treated with 20 ng/mL of IL-4 for 3 days differentiate them to an M2-phenotype.
Cells were detached using 1× Tryp1E Express Enzyme (ThermoFisher Scientific) and washed with PBS. TRIzol (ThermoFisher Scientific) was added to the cells followed by absolute ethanol. mRNA was collected in Zymo-Spin IC columns (Zymo Research) by centrifuging the cell solution in the spin columns. The mRNA was washed and resuspend in RNAse and DNAse free water. After evaluating the mRNA concentration, the cDNA reaction mixture was prepared by adding the mRNA to nuclease-free water, iScript Reverse Transcriptase (Bio-Rad) and 5× iScript Reaction Mix. The cDNA reaction was performed using TurboCycler Lite Thermal Cycler (Blue-Ray Biotech). The cDNA was then aliquoted and added to a mixture of primers for the genes 1112b, 118, Nos2, 1110, Tgfb1 and Fizz1 respectively along with iTaq™ Universal SYBR® Green Supermix (Bio-Rad). […] Data was analysed using the ΔΔCt method. […]

[2] = Histopathological analysis of organs (H&E); assay type: in vivo, mouse
Description: 8 week old mice were used for this study. […] The photon counts within each ROI were quantified.
Following perfusion and fixation with 10% neutral buffered formalin, tissues were processed into paraffin blocks using standard histology techniques, sectioned at a thickness of […], stained with hematoxylin and eosin (H&E), and evaluated using light microscopy.

[3] = test system: GL261-Luc orthotopic tumor; assay: Intracranial delivery via CED in orthotopic GL261-Luc mouse model
GL261 cells [4] = assay: Cell viability (CellTiter-Glo 2.0); assay type: cell-based, mouse; conditions: 12 hours + 36 hours at 37° C.; NT 5-6.4 μM ssDNA-amphiphiles, DOX 5 μg/mL, NT-DOX same concentrations; normalized to untreated
Method: The samples were incubated with cells for 12 hours at 37° C., followed by a single wash with PBS. 100 μL of fresh media was added, and cells were incubated at 37° C. for an additional 36 hours. […] The luminescence signal of each well was measured, and the luminescence of each group was normalized to the luminescence of the untreated cells.

GL261 cells [5] = assay: Inhibition of endocytosis (nanotube uptake, flow cytometry); assay type: cell-based, mouse; conditions: inhibitor 30 min then nanotubes 3 hours, 30 μg/mL DMA, 500 μg/mL fucoidan, 10 μM LatB
Method: 200,000 GL261 cells were plated per well in 12-well plates and incubated at 37° C. and 5% CO2 overnight. The following day, media was replaced with fresh media, and inhibitor stock solutions were diluted and delivered to the cells at targeted concentrations: 1.25 μg/mL cytochalasin D (CytD), 10 μM latrunculin B (LatB), 15 μg/mL nocodazole, 5 μg/mL fillipin, 2.5 μg/mL nystatin, 1.32 mg/mL methyl-β-cyclodextrin (MPCD), 2.5 μg/mL chlorpromazine (CPZ), 12.5 μg/mL dynasore, 0.2 μg/mL pertussis toxin (PTX), 2 μg/mL cholera toxin (CTX), 30 μg/mL 5-(N,N-dimethyl)-amiloride hydrochloride (DMA), and 500 μg/mL fucoidan. Cells with no inhibitor were used as positive controls. Plates were gently shaken by hand to ensure even distribution of inhibitors, and placed in the incubator for 30 minutes. […] Cells were washed twice with 1 mL PBS, trypsin-EDTA at 37° C. was added to each well, the contents of each well were individually mixed via up and down pipetting and transferred to 1.5 mL centrifuge tubes. Cells were washed twice with PBS, reconstituted in 500 μL PBS and transferred to flow cytometry tubes. 5 μL of 10 μg/mL propidium iodide (PI) solution was added to each tube and vortexed. The cells were run on a BD FACSCanto flow cytometer and were examined for PI and HEX fluorescence via excitation at 488 nm with a 585/42 filter. Cells were gated by PI staining to select for live cells, and by scattering (FSC-A and SSC-A) to select for single cells. To evaluate cytotoxicity of inhibitors, 10,000 GL261 cells were plated in 96-well plates and incubated overnight in a 37° C. 5% C02 incubator. The next day, media was replaced with fresh formulated media, and inhibitor stock solutions were diluted and delivered to the cells at concentrations mentioned above. Plates were gently shaken by hand and placed in the incubator for 3 hours. Cell viability was measured using CellTiter-Glo 2.0 assay (Promega, Madison, WI) following the manufacturer's protocol. Luminescence was recorded using a Synergy H1 microplate reader (Biotek, Winooski, VT), and cell viability was normalized to untreated cells.

Molecule: C=C(NC(=O)C(=C)NC(=O)c1csc(C2=N[C@@H]3c4csc(n4)[C@H]4NC(=O)c5csc(n5)[C@H]([C@](C)(O)[C@@H](C)O)NC(=O)[C@H]5CSC(=N5)/C(=C/C)NC(=O)[C@H]([C@@H](C)O)NC(=O)c5csc(n5)[C@]3(CC2)NC(=O)[C@H](C)NC(=O)C(=C)NC(=O)[C@H](C)NC(=O)[C@H]([C@@H](C)CC)N[C@@H]2C=Cc3c([C@H](C)O)cc(nc3[C@H]2O)C(=O)O[C@@H]4C)n1)C(N)=O [free TS, thiostrepton]
- expression of genes associated with M2-like macrophages (ΔΔCt) [1]: successful at downregulating genes associated with M2-like macrophages
- expression of genes of M1-like macrophages (ΔΔCt) [1]: upregulating genes of M1-like macrophages

Molecule: COc1cccc2c1C(=O)c1c(O)c3c(c(O)c1C2=O)C[C@@](O)(C(=O)CO)C[C@@H]3O[C@H]1C[C@H](N)[C@H](O)[C@H](C)O1.Cl [DOX, Doxorubicin-hydrogen chloride]
- histology of liver [2]: multifocal areas of hepatocyte degeneration and necrosis
- histology of spleen [2]: diffuse, moderate to marked depletion of the spleen white pulp associated with zonal lymphocytic apoptosis and necrosis
- histology of lung, kidney and heart tissues ([2]; compared to the PBS control): no significant findings
- body weight gained ([3]; after 28 days): 6%
- decrease in tumor signal (bioluminescence) ([3]; day 28, pump 70 μM DOX (0.2 mg DOX/Kg mouse), about 14 days, 0.25 μL/hour): 80%
- median survival time ([3]; n=9-10 per group, NT 95 μM ssDNA-amphiphiles, DOX 70 μM): 34.5 days
- viability of GL261 cells (GL261 cells [4]): 47±6%

Molecule: fucoidan
- inhibition of cellular uptake of the nanotubes (GL261 cells [5]): 57%

Molecule: C/C1=C/C(=O)O[C@@H]2C[C@@H](CC[C@H](C)/C=C\CC1)O[C@@](O)([C@@H]1CSC(=O)N1)C2 [LatB, latrunculin B]
- inhibition of cellular uptake of the nanotubes (GL261 cells [5]): 20%

Molecule: CN(C)c1nc(N)c(C(=O)N=C(N)N)nc1Cl.Cl [DMA, 5-(N,N-dimethyl)-amiloride hydrochloride]
- inhibition of cellular uptake of the nanotubes (GL261 cells [5]): 44%
